Measured values taken from patent US20230168255A1, “UNBLENDING OF TRANSCRIPTIONAL CONDENSATES IN HUMAN REPEAT EXPANSION DISEASE” (Max-Planck-Gesellschaft zur Förderung der Wissenschaften …, priority 2020, published 2023).

Experiments:
[1] = target: T1, Hoxd13 +7A IDR-Med1 IDR co-condensates (Homo sapiens, UniProt P35453, DUP65-71); assay: in vitro droplet assay, compound treatment of Hoxd13 IDR-Med1 IDR co-condensates; type: biochemical; details: purified Hoxd13 +7A IDR-mCherry mixed with MED1 IDR-GFP; FIG. 3G-J, FIG. 8
T1 construct: His tag (from pET45b(+); purified on a His column); made in house; host or cells: E. coli BL21(DE3)
T1 sequence (P35453 with tags, fused parts or gaps DUP65-71): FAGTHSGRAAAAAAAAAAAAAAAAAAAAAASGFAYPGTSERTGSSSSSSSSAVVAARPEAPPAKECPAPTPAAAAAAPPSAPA
Description: (§1) For image analysis, droplets were first automatically thresholded in either the mEGFP or mCherry channel using Zen Blue (Version 3.0), and then filtered by size, pixel intensity, and pixel deviation. Mean fluorescence intensities, area, and diameter of these primary regions were measured on both channels. For quantification and data visualization (FIG. 1J, 2H, 3B-E, 3H-J, 6F, 6H, 60, 6Q), raw values for diameter, mean intensity, or area were plotted as indicated in figure legends using R-Studio and the Directlabels package.
(§2) For in vitro droplet formation, recombinant mCherry or mEGFP fusion proteins were measured for concentration, and then diluted or mixed to suitable final concentrations in storage buffer. For microscopy, these solutions were further diluted 1:2 in either 20% or 10% PEG-8000 in deionized water (w/v). 10 μL of this suspension was pipetted onto chambered coverslips, and immediately imaged using a LSM880 confocal microscope equipped with a 63×1.40 oil DIC objective and AiryScan detector. All images were acquired from within the solution interface, and performed before droplets settled onto the bottom of the coverslip, as described in (Sabari et al., 2018). For droplet assays using preformed GFP-Med1 condensates (FIG. 3E-F), GFPMed1 droplets were allowed to form for 30 minutes at room temperature in the presence of 10% PEG-8000, before proceeding with co-condensation assays. For compound treatments of cocondensates (FIG. 3G-J), small molecules [ATP (Jena Bioscience, NU-1010), Mitoxantrone dihydrochloride (Sigma M6545), (±)-α-lipoic acid (Sigma 62320), and lipoamide, (Medchemexpress HY-B1142)] were directly diluted into droplet mixtures with or without vehicle (DMSO, Sigma D2650) to the desired final concentrations.

[2] = system: Hoxd13 puncta in limb bud cells; assay: 1,6-hexanediol treatment of limb bud cells, Hoxd13 immunofluorescence; type: cell-based, mouse; details: 6% for 1 min; limb bud cells expressing +7A Hoxd13 (spdh) versus wt
Description: 1,6-hexanediol treatment: Isolated limb bud cells attached to fibronectin coated glass coverslips were treated with 6% or 0% hexanediol (Sigma, 240117) in 1 mL cell culture media for 1 minute at 37° C. After treatment, cells were washed with 1 mL of PBS, and immediately fixed in 4% paraformaldehyde in PBS for 10 min. Fixed cells were washed and then stored at 4° C. until processing for immunofluorescence and microscopy.
Isolated limb bud cells, Kelly cells, and SH-SY5Y cells attached to coated glass coverslips were fixed in 4% paraformaldehyde (PFA) (Sigma-Aldrich, P6148) in PBS for 10 min and stored at 4° C. in PBS or processed immediately. Cells were permeabilized in 0.1% Triton X-100 (Thermo Scientific, 85111) in PBS for 10 min at RT. […]
Hoxd13 puncta detected in fixed cell immunofluorescence (FIG. 4C-D) were analyzed using a similar workflow described above. Nuclear regions were automatically detected in the Zen Blue (Zeiss) software package using the DAPI counterstain signal. Puncta were segmented on morphology, and then filtered based on fluorescence intensity and circularity. […] Values for nuclear area, Hoxd13 puncta area, Hoxd13 puncta mean fluorescence intensity, and Hoxd13 puncta count were measured for 120 wild type cells, 143 1-6 HD treated wild type cells, 63 spdh cells, and 62 1-6 HD treated spdh cells.

[3] = system: Hoxd13 +7A IDR-Med1 IDR co-condensates; assay: in vitro droplet assay, compound treatment of Hoxd13 IDR-Med1 IDR co-condensates; type: biochemical; details: summary statement; TFs containing disease-mutations
Description: as §1, §2

| Molecule | reblending of co-condensates (ratio of GFP and mCherry fluorescence in HOXD13 IDR-mCherry containing droplets) [1] | sensitivity of Hoxd13 puncta to 1,6-HD [2] | composition of heterotypic condensates formed by Cluster 1 TFs with transcriptional co-activators (co-activator and TF content) [3] |
| --- | --- | --- | --- |
| OCCCCCCO [1,6-HD, 1,6-hexanediol] |  | considerably reduced sensitivity |  |
| Nc1ncnc2c1ncn2[C@@H]1O[C@H](COP(=O)(O)OP(=O)(O)NP(=O)(O)O)[C@@H](O)[C@H]1O [APPNP, adenosine-5′-[(β,γ)-imido]triphosphate] | capable of reblending |  | effective |
| adenosine tri-phosphate [ATP] | reblended Hoxd13 +7A IDR-Med1 IDR co-condensates in a dose dependent manner |  | revert the compositional alteration |

Second part, led by results:

| reblending of co-condensates (ratio of GFP and mCherry fluorescence in HOXD13 IDR-mCherry containing droplets) [1] | Molecule | sensitivity of Hoxd13 puncta to 1,6-HD [2] | composition of heterotypic condensates formed by Cluster 1 TFs with transcriptional co-activators (co-activator and TF content) [3] |
| --- | --- | --- | --- |
| failed to reblend | O=C(O)CCCCC1CCSS1 (racemic) [lipoic acid, (±)-α-lipoic acid] |  |  |
| failed to reblend | NC(=O)CCCCC1CCSS1 (stereo not shown) [lipoamide] |  |  |
